Experimental data taken from PubChem BioAssay AID2305 (GlaxoSmithKline (GSK), 2010).

system: P. falciparum 3D7 growth, pLDH absorbance; experiment: P. falciparum 3D7 growth inhibition, dose response, strain 3D7 (AID 2305)

| Compound | IC50 [nM] |
| --- | --- |
| CC(C)COc1ccc(Cl)cc1Cc1ccc(-c2nc3ccc(F)cc3[nH]2)o1 | 850 |
| Cc1ccc(C(=O)Nc2ccc(C)c(OC3CCN(CCC(C)C)C3)c2)cc1 (stereo not given) | 790 |
| N#Cc1ccc2c(c1)CCN(CCC1CCC(NC(=O)c3ccc(-c4ccccc4)s3)CC1)CC2 (stereo not given) | 680 |
| N#Cc1ccc(CN2CCC(Oc3ccc(NC(=O)c4ccco4)cc3Cl)C2)cc1 (stereo not given) | 330 |
| Cc1cc(=O)c(-c2ccc(Oc3ccc(C(F)(F)F)cc3)cc2)c(C)n1O | 600 |
| Cc1ccc(CON2C(N)=NC(N)=NC23CCCCC3)c2ccccc12 | 70 |
| CN(C)Cc1c(O)ccc2oc(Cc3ccccc3)cc12 | 910 |
| COc1cc2nc(N3CCC(CNC(=O)c4cccc5cc[nH]c45)CC3)nc(N)c2cc1OC | 1580 |
| Cc1cc2nc(-c3ccc(C(=O)NC4CCN(Cc5ccccc5)CC4)cc3)[nH]c2cc1C | 740 |
| Cc1cccc2[nH]c(-c3cccc(-c4cccc(C(=O)N5CCCCC5CN5CCC(O)C5)c4)c3)nc12 (stereo not given) | 460 |
| O=C(Nc1ccc(Cl)cc1)N[C@H]1CCN(CCCCCNC(=O)[C@@H]2C[C@H]2c2ccc(Cl)c(Cl)c2)C1 | 870 |
| FC(F)(F)c1ccc2nc(-c3ccc(-c4cccc(CNCCN5CCNCC5)c4)s3)[nH]c2c1 | 1040 |
| CN(c1ccc2c(c1)nc(NC(=O)C1(c3cc(F)ccc3F)CC1)n2C)c1ccnc(Nc2cccc(CS(C)(=O)=O)c2)n1 | 1100 |
| CNC(=O)C1Cc2c([nH]c3cc(Cl)ccc23)C2(CCN(CCc3ccccc3)CC2)N1 (stereo not given) | 930 |
| O=C(Nc1ccccc1Oc1ccccc1)NC1CCN(c2ccnc3cc(Cl)ccc23)C1 (stereo not given) | 170 |
| CC(C)COc1ccc(Cl)cc1Cc1ccc(-c2nc3c(F)c(F)ccc3[nH]2)o1 | 940 |
| OC1CCCN(Cc2cccc(-c3ccc(-c4nc5ccc(F)cc5[nH]4)cc3)c2)C1 (stereo not given) | 780 |
| Cc1ccccc1OCCCc1c(C)nc(N)nc1N | 280 |
| CN1CCN(CC(O)CNC(=O)Nc2ccc(Br)cc2)CC1 (stereo not given) | 150 |
| COc1ccc2nccc([C@@H](O)CN3CCC(NC(=O)COc4nc(SCc5ccc(F)cc5)nc5c4CCC5)CC3)c2c1 | 590 |
| CN(C)Cc1cc(Nc2ccnc3cc(Cl)ccc23)ccc1O | 10 |
| CCCc1cc(OC)c(CC2c3cc(O)c(C)cc3CCN2C)cc1OC (stereo not given) | 700 |
| Cn1cc(C(=O)Nc2cccc(-c3cccc(-c4nc5ccc(F)cc5[nH]4)c3)c2)n(C)c1=O | 390 |
| O=C(c1c(-c2[nH]c3ccccc3c2C(=O)C(F)(F)F)[nH]c2ccccc12)C(F)(F)F | 750 |

| Compound | IC50 [nM] |
| --- | --- |
| CS(=O)(=O)c1ccc(-c2cncc(Cl)n2)cc1 | 770 |
| Cc1[nH]c(C)c(-c2ccc(-c3ccc(F)cc3)nc2)c(=O)c1Br | 250 |
| O=C(Nc1ccc(-c2cccc(-c3nc4ccc(F)cc4[nH]3)c2)cc1)Nc1ccc(F)c(F)c1F | 740 |
| CC(=O)Oc1cc(C)ccc1C1CCN(CCCCNC(=O)c2ccc(NC(=O)c3ccc(Cl)cc3)cc2)CC1 | 720 |
| O=C(NCCCCN1CCN(c2cccc3c2OCCO3)CC1)c1ccc(NC(=O)c2cc(Cl)cc(Cl)c2)cc1 | 220 |
| CC(=O)N[C@H](C(=O)Nc1ccc(-c2ccc(-c3nc4ccc(C(F)(F)F)cc4[nH]3)s2)cc1)C(C)C | 1030 |
| N#Cc1ccc(CN2CCC(NC(=O)c3ccc(-c4nnc(-c5cccc6ccccc56)o4)cc3)CC2)cc1 | 680 |
| c1cc(CNCC2CCN(CC3CCCCC3)CC2)cc(-n2ccnc2)c1 | 540 |
| CC(C)NCC(O)COc1ccc(Cc2ccc(OCC(O)CNC(C)C)cc2)cc1 (stereo not given) | 650 |
| O=S(=O)(Nc1cccc(CCN2CCC(N3CCCCC3)CC2)c1)c1cccc(C(F)(F)F)c1 | 980 |
| O=C(Nc1cccc(CN2CCN(C(=O)c3cccc(Cl)c3)CC2)c1)c1cccs1 | 180 |
| CCNc1cc(C(=O)N[C@@H](Cc2cccc(F)c2)[C@H](O)CNC(C)CCCC(C)C)cc(N2CCCCS2(=O)=O)c1 (stereo not given in full) | 600 |
| CC(C)CNCc1cccc(-c2cccc(CN(CCN(C)C)C(=O)NCCc3ccccc3)c2)c1 | 690 |
| CCc1nc(N)nc(N)c1-c1ccccc1 | 1180 |
| O=c1cc(NCCCNCc2cc(Cl)cc(Cl)c2OCc2ccc(Cl)cc2)[nH]c2ccccc12 | 690 |
| COc1cc(CNCCCCCCNCc2cc(OC)c3ccccc3c2OC)c(OC)c2ccccc12 | 700 |
| COc1ccccc1CNc1ccnc(N2CC(Oc3ccc(F)cc3)C2)n1 | 850 |
| COC(=O)c1ccc2nc(-c3ccc(/C=C/C(=O)NC4CCN(Cc5ccccc5)CC4)cc3)[nH]c2c1 | 710 |
| Cc1cccc2[nH]c(-c3cccc(-c4ccc(NC(=O)CCc5cnc[nH]5)cc4)c3)nc12 | 300 |
| Cc1cccc2[nH]c(-c3ccc(-c4ccc(CN5CCCCC5CO)cc4)cc3)nc12 (stereo not given) | 810 |
| Nc1ccnc(N2CCC(CCOc3ccnc4cc(Cl)ccc34)CC2)c1 | 1160 |
| CC(C)c1cn2c3c(cc(C(=O)N[C@@H](Cc4ccccc4)[C@H](O)CNC4CCOCC4)cc13)N(C)S(=O)(=O)CC2 | 50 |
| O=C(Nc1ccc(Oc2ccccc2)cc1)N1CCC(CCN2CCC(c3c[nH]c4ccccc34)CC2)CC1 | 800 |
| O=C(Nc1cccc(F)c1)N(Cc1ccc(-c2cccc(CN3CCNCC3)c2)cc1)C1CCN(Cc2ccccc2)CC1 | 760 |

| Compound | IC50 [nM] |
| --- | --- |
| CCCOc1cc(Cc2cnc(N)nc2N)cc(OC)c1OC | 1170 |
| Oc1c(CNC2CCCCC2)cc(Cl)c2ccccc12 | 840 |
| CN1CCN(c2ccnc3ccc(NC(=O)Nc4ccccc4Br)cc23)CC1 | 370 |
| Cc1ccc(F)cc1S(=O)(=O)N1CCCCC(c2ccc(C(F)(F)F)cc2)=N1 | 940 |
| CC(C)(C)c1nn(-c2ccccc2)c2[nH]c(=O)c(CNCc3ccc4c(c3)OCO4)cc12 | 1050 |
| Cc1cc(N2CCCC2)nc(Nc2ccc(NC(=O)c3ccc4c(c3)OCO4)cc2)n1 | 810 |
| COc1cc2nc(N3CCC(CNC(=O)/C=C/c4cccc(C)c4)CC3)nc(N)c2cc1OC | 680 |
| CC(Nc1nncc(-c2cccc(F)c2)n1)c1ccc(F)cc1 (stereo not given) | 790 |
| Cc1[nH]c2cc(Cl)ccc2c1C1=CCN(CCCCC2(C)C(=O)Nc3ccccc32)CC1 (stereo not given) | 330 |
| CCCCCCCCn1ccc(=N)cc1 | 840 |
| CCNc1cc(C(=O)N[C@@H](Cc2ccccc2)[C@H](O)CNC(C)(C)c2cccc(OC)c2)cc(N2CCCC2=O)c1 | 140 |
| CC(C)N(CCOc1ccc2c(c1)N(C(=O)Nc1cc(Br)cc(C(F)(F)F)c1)CC2)C(C)C | 110 |
| CC(=O)Oc1c(C2CCN(CCCCNC(=O)c3ccc(NC(=O)c4ccc(Cl)cc4)cc3)CC2)ccc2c1CCCC2 | 760 |
| O=C(NC1CCCCC1)N(Cc1ccc(-c2cccc(CNCc3ccc4c(c3)OCO4)c2)cc1)C1CCN(Cc2ccccc2)CC1 | 690 |
| O=C(Nc1ccccc1Cc1ccccc1)c1ccccc1[N+](=O)[O-] | 860 |
| COc1ccc2nccc([C@@H](O)CN3CCC(NCc4nc5c(F)cccc5[nH]4)CC3)c2c1 | 470 |
| O=C(Nc1cccc(CN2CCCN(Cc3ccc(O)cc3)CC2)c1)c1ccc2ccccc2n1 | 940 |
| O=C(Nc1cccc(CN2CCCN(Cc3ncc[nH]3)CC2)c1)c1cc2ccccc2s1 | 730 |
| CCCCCn1c(Sc2ccc(C#N)c([N+](=O)[O-])c2)nnc1-c1cccs1 | 780 |
| CC(C)(C)c1ccc(NC(=O)c2ccc(CN3CCCN(CC4CCCCC4)CC3)cc2)cc1 | 540 |
| Cc1cc(OCc2ccccc2)c(OCc2ccccc2)cc1C(O)CN(C)Cc1ccccc1 (stereo not given) | 810 |
| Cc1cccc2[nH]c(-c3cccc(-c4cccc(CNC(C)C)c4)c3)nc12 | 340 |
